In patent US20040071683A1, “Methods for treating pervasive development disorders” (priority 1999, published 2004):
No end group written: not given here.

Key:
fecal chymotrypsin = experiment: Fecal Chymotrypsin Test after secretin infusion in autistic children (Experiments 1 and 2); format: in vivo
Method: In this experiment, 16 children diagnosed as having autism were administered the following Fecal Chymotrypsin Test in accordance with an embodiment of the invention. First, approximately 2 grams of stool were collected from each child and placed in a sterile container (although it is to be understood that any quantity of stool may be collected, as 2 grams of stool is not a required amount). Each stool sample was then analyzed using, e.g., an enzymatic photospectrometry analysis as is known by those skilled in the art, to determine the level of fecal chymotrypsin in the stool. Although the enzymatic photospectrophotometry process is preferred, any suitable conventional method may be used for measuring the fecal chymotrypsin levels. The measured chymotrypsin levels of the 16 autistic children are illustrated in FIG. 13.
After determining the chymotrypsin levels of the stools, each of these levels were compared with threshold chymotrypsin levels to determine if the child was likely to benefit from secretin administration. By way of example, with the fecal chymotrypsin tests of the stool samples being performed at 30° C., normal levels of chymotrypsin are deemed to lie above 8.4 U/gram, whereas pathologically abnormal levels are deemed to lie below 4.2 U/gram. In addition, chymotrypsin levels between 8.4 U/gram and 4.2 U/gram are considered equivocal, and further testing of the individual's fecal chymotrypsin levels over a period of time should be performed.
(§1) For each of the 16 autistic children tested, a preferred secretin infusion process according to the present invention was performed involving the administering of 1 U/kg of body weight of Secretin-Ferring for a period of nine months at intervals of approximately 6 weeks. In addition, another CARS test was administered to each of the 16 autistic children 3 weeks post secretin administration to determine if their autism had changed post infusion.
A preferred secretin infusion process includes the initial step of prepping an arm of the candidate child with an IV injection of saline. A test dose of 1U of Secretin-Ferring is then administered to the child. Approximately one minute after infusion, the child is examined for signs of allergic reaction including rash, increased heart rate, and increase of blood pressure. […] Subsequently, each child receives a 1 U/kg of body weight infusion of Secretin-Ferring approximately every 6 weeks for 9 months. […]
In this experiment, 37 autistic children with abnormal fecal chymotrypsin levels were administered secretin over the course of 6 months using the secretin infusion process described above. Their fecal chymotrypsin (FC) levels were measured weekly using the fecal chymotrypsin test described above.

autistic children = experiment: CARS (Childhood Autism Rating Scale) test pre- and post-secretin administration (Experiment 1); format: in vivo; details: 16 autistic children
Method: Upon determining that a given child was likely to benefit from secretin administration based on the results of the fecal chymotrypsin test, the child was administered a CARS (Childhood Autism Rating Scale) test prior to being scheduled for secretin infusion.
as §1
A preferred secretin infusion process includes the initial step of prepping an arm of the candidate child with an IV injection of saline. A test dose of 1U of Secretin-Ferring is then administered to the child. Approximately one minute after infusion, the child is examined for signs of allergic reaction including rash, increased heart rate, and increase of blood pressure. […] Subsequently, each child receives a 1 U/kg of body weight infusion of Secretin-Ferring approximately every 6 weeks for 9 months. It is to be understood that any commercially available form of secretin may be used.

[1] = system: children diagnosed with Autism; details: secretin given as diagnostic procedure during upper gastrointestinal endoscopy; Horvath et al. 1998; cited from earlier work

In the case of “secretin (HSDGTFTSELSRLRDSARLQRLLQGLV; ends and bridges not checked; UniProt P63298 33-59, looked up) [a gastrointestinal peptide hormone]”, the “# Autistic Children w/ Equivocal FC levels” value (fecal chymotrypsin; 6 Months Post-Secretin Administration, of 37 autistic children (0 pre-secretin), equivocal between 8.4 and 4.2 U/gram) is reported as 2, the “# Autistic Children w/ normal FC levels” value (fecal chymotrypsin; 6 Months Post-Secretin Administration, of 37 autistic children (0 pre-secretin), normal above 8.4 U/gram) is reported as 34 and the “# Autistic Children w/ Abnormal FC levels” value (fecal chymotrypsin; 6 Months Post-Secretin Administration, of 37 autistic children (37 abnormal pre-secretin), abnormal below 4.2 U/gram) is reported as 1. For the same substance, the “fecal chymotrypsin level post-secretin administration compared with pre-secretin” value (fecal chymotrypsin; each of 16 autistic children, approximately one week after first infusion of 1 U/kg Secretin-Ferring IV, FIG. 14 vs FIG. 13) was “increased”, the “CARS fear component post-secretin” value (autistic children; 3 weeks post infusion) was “increased” and the “CARS component scores post-secretin (all except fear)” value (autistic children; 3 weeks post infusion, FIGS. 2-12) was “demonstrated improvement”. The “overall CARS scores post-secretin vs pre-secretin” value (autistic children; approximately 3 weeks after first secretin administration, FIG. 1) was “overall decrease” and the “symptoms associated with Autism after secretin administration” value [1] was “ameliorating the symptoms associated with Autism”.
